Reference: PMC8000448, “Inhibitory Effects of Schisandra Lignans on Cytochrome P450s and Uridine 5′-Diphospho-Glucuronosyl Transferases in Human Liver Microsomes” (Pharmaceutics, 2021)
Like-named read-outs stand apart in the source and are kept apart here.

Columns and labels:
[1] = molecular target: T1, CYP2E1 (Homo sapiens, UniProt P05181); experiment: CYP2E1 inhibition in HLMs (chlorzoxazone); assay type: in vitro ADME
T1 construct: pooled HLMs (0.25 mg/mL); tissue XenoTech H2630; host or cells: pooled human liver microsomes, mixed gender
T1 sequence (P05181 whole entry): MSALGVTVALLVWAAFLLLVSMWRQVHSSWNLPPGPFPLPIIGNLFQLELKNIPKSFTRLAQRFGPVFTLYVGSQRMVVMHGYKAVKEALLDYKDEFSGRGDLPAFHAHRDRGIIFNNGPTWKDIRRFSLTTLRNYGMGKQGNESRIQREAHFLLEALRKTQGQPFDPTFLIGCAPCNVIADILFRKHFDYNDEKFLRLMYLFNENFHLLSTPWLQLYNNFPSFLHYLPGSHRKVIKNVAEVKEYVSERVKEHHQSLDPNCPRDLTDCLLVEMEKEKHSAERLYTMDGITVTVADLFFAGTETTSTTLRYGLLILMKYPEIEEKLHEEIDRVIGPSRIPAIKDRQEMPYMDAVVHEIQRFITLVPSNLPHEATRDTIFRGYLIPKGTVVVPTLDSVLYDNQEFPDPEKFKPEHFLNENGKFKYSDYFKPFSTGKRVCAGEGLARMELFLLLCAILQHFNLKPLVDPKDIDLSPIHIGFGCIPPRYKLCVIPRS
Experimental: (§1) Lignans were first dissolved in methanol. […] All microsomal incubations were performed in triplicate.

[2] = molecular target: T2, CYP2A6 (Homo sapiens, UniProt P11509); experiment: CYP2A6 inhibition in HLMs (coumarin); assay type: in vitro ADME
T2 construct: pooled HLMs (0.25 mg/mL); tissue XenoTech H2630; host or cells: pooled human liver microsomes, mixed gender
T2 sequence (P11509 1-494): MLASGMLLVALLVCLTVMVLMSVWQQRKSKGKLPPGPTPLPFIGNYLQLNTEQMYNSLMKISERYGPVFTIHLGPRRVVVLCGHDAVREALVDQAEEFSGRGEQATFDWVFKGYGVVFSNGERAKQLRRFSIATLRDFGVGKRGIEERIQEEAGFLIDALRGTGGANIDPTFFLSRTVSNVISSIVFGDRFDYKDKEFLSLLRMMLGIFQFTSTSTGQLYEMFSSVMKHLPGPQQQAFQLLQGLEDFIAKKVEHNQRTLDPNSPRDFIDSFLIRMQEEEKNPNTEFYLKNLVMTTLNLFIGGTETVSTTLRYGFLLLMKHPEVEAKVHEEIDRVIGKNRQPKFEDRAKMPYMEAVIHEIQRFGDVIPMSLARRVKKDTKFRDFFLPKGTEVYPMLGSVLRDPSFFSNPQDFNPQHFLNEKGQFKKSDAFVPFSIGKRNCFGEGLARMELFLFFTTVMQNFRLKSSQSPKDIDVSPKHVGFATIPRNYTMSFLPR
Experimental: as §1

[3] = molecular target: CYP2C19 (Homo sapiens, UniProt P33261); experiment: CYP2C19 inhibition in HLMs (S-mephenytoin)
CYP2C19, sequence (P33261 whole entry): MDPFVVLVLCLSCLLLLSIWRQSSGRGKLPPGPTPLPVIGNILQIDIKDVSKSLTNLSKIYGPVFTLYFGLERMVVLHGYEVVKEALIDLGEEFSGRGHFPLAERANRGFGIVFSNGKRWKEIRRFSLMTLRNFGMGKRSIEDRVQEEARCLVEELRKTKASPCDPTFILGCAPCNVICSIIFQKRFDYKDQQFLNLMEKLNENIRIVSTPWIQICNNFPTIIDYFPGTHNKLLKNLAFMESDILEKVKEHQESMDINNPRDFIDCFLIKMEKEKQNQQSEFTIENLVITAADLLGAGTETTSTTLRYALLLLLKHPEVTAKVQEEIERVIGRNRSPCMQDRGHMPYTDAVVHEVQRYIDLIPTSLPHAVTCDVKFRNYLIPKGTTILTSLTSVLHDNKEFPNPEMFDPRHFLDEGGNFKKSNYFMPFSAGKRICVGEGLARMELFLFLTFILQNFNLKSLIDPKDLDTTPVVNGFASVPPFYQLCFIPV
Experimental: (§2) Lignans were first dissolved in methanol. The final organic solvent concentration in the incubation media was ≤1.0% (v/v). The microsomal incubation was conducted using two cocktail sets containing non-interactive substrates: set A containing phenacetin, bupropion, amodiaquine, diclofenac, S-mephenytoin, and dextromethorphan as substrates for CYP1A2, CYP2B6, CYP2C8, CYP2C9, CYP2C19, and CYP2D6, respectively; and set B containing coumarin and chlorzoxazone as substrates for CYP2A6 and CYP2E1, and midazolam, nifedipine, and testosterone as substrates for CYP3A4 (Table 1). These substrates are known to be selective for each P450 isoforms. Incubation mixtures containing potassium phosphate buffer (0.1 M, pH 7.4), pooled HLMs (0.25 mg/mL), P450 probe substrate cocktails, and lignan (0~50 μM) were pre-incubated at 37 °C (5 min). Following pre-incubation, an NADPH generating system (1.3 mM NADP^+, 3.3 mM G6P, 1 unit/mL G6PDH, and 3.3 mM MgCl2) was added to initiate the reaction, and further incubated for 10 min. The reaction was quenched with 50 μL of cold acetonitrile containing internal standard (IS; 7 nM trimipramine). After centrifugation at 14,000 rpm (5 min at 4 °C), aliquots of supernatants were filtered through a 0.2 μm membrane filter and were measured by liquid chromatography-tandem mass spectrometry (LC-MS/MS). All microsomal incubations were performed in triplicate.

[4] = molecular target: T3, CYP2C8 (Homo sapiens, UniProt P10632); experiment: CYP2C8 inhibition in HLMs (amodiaquine); assay type: in vitro ADME
T3 construct: pooled HLMs (0.25 mg/mL); tissue XenoTech H2630; host or cells: pooled human liver microsomes, mixed gender
T3 sequence (P10632 1-490): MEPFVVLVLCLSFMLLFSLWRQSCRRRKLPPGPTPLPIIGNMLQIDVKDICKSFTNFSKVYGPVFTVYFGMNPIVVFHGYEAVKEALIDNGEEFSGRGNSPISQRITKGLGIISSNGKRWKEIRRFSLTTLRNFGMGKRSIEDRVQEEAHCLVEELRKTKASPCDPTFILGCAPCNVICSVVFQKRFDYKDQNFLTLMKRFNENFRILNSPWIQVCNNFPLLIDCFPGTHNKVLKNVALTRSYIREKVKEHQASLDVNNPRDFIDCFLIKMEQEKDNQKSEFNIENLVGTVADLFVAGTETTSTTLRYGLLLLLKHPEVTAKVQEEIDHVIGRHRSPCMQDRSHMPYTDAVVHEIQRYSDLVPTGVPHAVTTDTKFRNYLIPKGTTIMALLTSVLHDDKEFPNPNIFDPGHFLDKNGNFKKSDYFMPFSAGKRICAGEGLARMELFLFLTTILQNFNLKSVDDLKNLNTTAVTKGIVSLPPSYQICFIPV
Experimental: as §1

[5] = molecular target: T4, CYP2B6 (Homo sapiens, UniProt P20813); experiment: CYP2B6 inhibition in HLMs (bupropion); assay type: in vitro ADME
T4 construct: pooled HLMs (0.25 mg/mL); tissue XenoTech H2630; host or cells: pooled human liver microsomes, mixed gender
T4 sequence (P20813 1-491): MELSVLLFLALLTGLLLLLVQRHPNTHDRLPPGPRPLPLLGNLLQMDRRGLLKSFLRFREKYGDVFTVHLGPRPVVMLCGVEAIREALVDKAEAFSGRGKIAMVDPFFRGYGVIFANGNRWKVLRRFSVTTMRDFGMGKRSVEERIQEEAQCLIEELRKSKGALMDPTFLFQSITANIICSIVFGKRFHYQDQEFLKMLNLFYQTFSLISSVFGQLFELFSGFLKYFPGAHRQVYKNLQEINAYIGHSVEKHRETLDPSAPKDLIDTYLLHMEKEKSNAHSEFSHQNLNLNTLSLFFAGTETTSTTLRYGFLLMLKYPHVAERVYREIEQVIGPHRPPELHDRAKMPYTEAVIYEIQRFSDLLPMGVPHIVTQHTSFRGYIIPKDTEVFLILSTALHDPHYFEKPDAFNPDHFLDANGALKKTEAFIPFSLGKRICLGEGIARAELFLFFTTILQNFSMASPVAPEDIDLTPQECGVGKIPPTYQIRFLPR
Experimental: as §1

[6] = molecular target: CYP3A (Homo sapiens, UniProt P08684); experiment: CYP3A inhibition in HLMs (midazolam, nifedipine, testosterone); settings: pooled human liver microsomes; for IC50 at 10 min: HLMs;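 for all read-outs here: pooled HLMs at 0.25 mg/mL in phosphate buffer, inhibitor across 0–50 µM, 10 min reaction at 37 °C after preincubation, probe metabolite quantified by LC-MS/MS, triplicate incubations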
CYP3A, sequence (P08684 2-503): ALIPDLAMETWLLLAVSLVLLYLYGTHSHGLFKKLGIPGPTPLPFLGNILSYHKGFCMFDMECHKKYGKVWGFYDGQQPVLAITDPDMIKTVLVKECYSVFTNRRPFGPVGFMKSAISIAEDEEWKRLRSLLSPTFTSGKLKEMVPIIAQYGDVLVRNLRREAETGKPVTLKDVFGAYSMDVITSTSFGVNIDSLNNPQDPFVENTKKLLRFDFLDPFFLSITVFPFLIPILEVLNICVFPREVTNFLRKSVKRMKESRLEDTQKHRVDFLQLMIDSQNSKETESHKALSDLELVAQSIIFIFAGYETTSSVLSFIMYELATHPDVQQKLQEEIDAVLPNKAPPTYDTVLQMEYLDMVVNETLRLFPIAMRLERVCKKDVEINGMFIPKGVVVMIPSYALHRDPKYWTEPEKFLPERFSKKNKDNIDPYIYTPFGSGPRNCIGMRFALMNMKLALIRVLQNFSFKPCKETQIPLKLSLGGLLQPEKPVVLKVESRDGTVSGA
Experimental: as §2

[7] = molecular target: T5, UGT1A4 (Homo sapiens, UniProt P22310); experiment: UGT1A4 inhibition in HLMs (trifluoperazine); assay type: in vitro ADME; settings: average in triplicate, read-out: IC50, UGT 1A4
T5 construct: pooled HLMs (0.25 mg/mL); tissue XenoTech H2630; host or cells: pooled human liver microsomes, mixed gender
T5 sequence (P22310 29-534): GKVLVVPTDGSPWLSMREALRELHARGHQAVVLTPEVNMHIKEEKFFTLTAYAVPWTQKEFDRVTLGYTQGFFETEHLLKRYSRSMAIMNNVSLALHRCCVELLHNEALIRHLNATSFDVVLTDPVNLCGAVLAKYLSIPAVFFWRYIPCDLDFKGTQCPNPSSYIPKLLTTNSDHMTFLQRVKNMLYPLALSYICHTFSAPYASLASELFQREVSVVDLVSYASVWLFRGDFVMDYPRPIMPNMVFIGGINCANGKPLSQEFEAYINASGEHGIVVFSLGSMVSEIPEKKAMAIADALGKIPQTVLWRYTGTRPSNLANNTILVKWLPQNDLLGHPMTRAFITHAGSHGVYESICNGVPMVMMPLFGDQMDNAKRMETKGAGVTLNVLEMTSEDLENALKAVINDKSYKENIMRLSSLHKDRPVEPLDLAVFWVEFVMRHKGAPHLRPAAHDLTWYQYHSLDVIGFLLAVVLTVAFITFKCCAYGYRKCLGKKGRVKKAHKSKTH
Experimental: The inhibitory potential of six lignans on six UGT activities was evaluated using the previously developed cocktail method with slight modifications. […] These substrates are known to be selective for each UGT isoforms.

[8] = molecular target: CYP2C9 (Homo sapiens, UniProt P11712); experiment: CYP2C9 inhibition in HLMs (diclofenac)
CYP2C9, sequence (P11712 whole entry): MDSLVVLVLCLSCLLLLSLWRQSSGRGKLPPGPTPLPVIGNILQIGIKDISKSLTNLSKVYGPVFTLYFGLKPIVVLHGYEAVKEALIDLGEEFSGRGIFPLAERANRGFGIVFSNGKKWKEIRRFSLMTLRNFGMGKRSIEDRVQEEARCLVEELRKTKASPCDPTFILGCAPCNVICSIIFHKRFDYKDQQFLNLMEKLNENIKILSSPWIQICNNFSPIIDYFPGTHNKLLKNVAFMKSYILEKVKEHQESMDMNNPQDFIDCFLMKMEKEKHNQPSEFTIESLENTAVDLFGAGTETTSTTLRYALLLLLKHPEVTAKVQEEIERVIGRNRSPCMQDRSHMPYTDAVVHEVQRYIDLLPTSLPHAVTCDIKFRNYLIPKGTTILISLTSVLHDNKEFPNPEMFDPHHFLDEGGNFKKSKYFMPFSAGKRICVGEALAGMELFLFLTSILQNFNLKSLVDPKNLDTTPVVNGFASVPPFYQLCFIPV
Experimental: as §2

[9] = 30 min pre-incubation with NADPH generating system, read-out: IC50 TDI, CYP2E1
[10] = reversible inhibition, read-out: IC50 RI, CYP2E1
[11] = 30 min pre-incubation with NADPH generating system, read-out: IC50 TDI, CYP2A6
[12] = reversible inhibition, read-out: IC50 RI, CYP2A6
[13] = IC50 TDI, 30 min pre-incubation with NADPH generating system
[14] = 30 min pre-incubation with NADPH generating system, read-out: IC50 TDI, CYP2C8
[15] = reversible inhibition, read-out: IC50 RI, CYP2C8
[16] = 30 min pre-incubation with NADPH generating system, read-out: IC50 TDI, CYP2B6
[17] = reversible inhibition, read-out: IC50 RI, CYP2B6
[18] = pH 7.4, probe midazolam (cocktail set B), IC50 RI, CYP3A (midazolam), midazolam, reversible inhibition
[19] = pH 7.4, probe midazolam (cocktail set B), IC50 TDI, CYP3A (midazolam), midazolam, 30 min pre-incubation with NADPH generating system
[20] = pH 7.4, probe nifedipine (cocktail set B), IC50 RI, CYP3A (nifedipine), nifedipine, reversible inhibition
[21] = pH 7.4, probe testosterone (cocktail set B), IC50 RI, CYP3A (testosterone), testosterone, reversible inhibition
[22] = pH 7.4, IC50, CYP3A activity (across probe substrates), reversible inhibition, probe substrate not singled out
[23] = pH 7.4, probe nifedipine (cocktail set B), IC50 TDI, CYP3A (nifedipine), nifedipine, 30 min pre-incubation with NADPH generating system
[24] = pH 7.4, probe testosterone (cocktail set B), IC50 TDI, CYP3A (testosterone), testosterone, 30 min pre-incubation with NADPH generating system

SMILES	IC50 [1, 9] [µM]	IC50 [1, 10] [µM]	IC50 [2, 11] [µM]	IC50 [2, 12] [µM]	IC50 ([3]; IC50 RI, reversible inhibition) [µM]	IC50 [3, 13] [µM]	IC50 [4, 14] [µM]	IC50 [4, 15] [µM]	IC50 [5, 16] [µM]	IC50 [5, 17] [µM]	IC50 at 10 min [6, 18] [µM]	IC50 at 10 min [6, 19] [µM]	IC50 at 10 min [6, 20] [µM]	IC50 at 10 min [6, 21] [µM]	IC50 [7] [µM]	IC50 ([8]; IC50 RI, reversible inhibition) [µM]	IC50 [8, 13] [µM]	IC50 at 10 min [6, 22] [µM]	IC50 at 10 min [6, 23] [µM]	IC50 at 10 min [6, 24] [µM]	also measured
COc1c2c(cc3c1-c1c(cc4c(c1OC)OCO4)C[C@H](C)[C@H](C)C3)OCO2 [Wuweizisu C, wuweizisu C]	25.2	> 50	> 50	> 50	2.7	1.5	14.6	21	1.4	2.9	25.9	2.5	5.6	3.6	> 50	8.9	3.6				
COc1cc2c(c(OC)c1OC)-c1c(cc3c(c1OC)OCO3)C[C@H](C)[C@H](C)C2 [Gomisin N, gomisin N]	23.6	> 50	> 50	38.2	10.4	3.5	9.9	31.7	> 50	38.3	4.5	1.7	1.4	1.3	> 50	36.2	10.9	1.3 to 4.5	0.61	0.55	IC50 shift at 10 min ([1]; human, pooled human liver microsomes, pH 7.4, probe chlorzoxazone (cocktail set B), RI/TDI fold shift): > 2.1; IC50 shift at 10 min ([4]; human, pooled human liver microsomes, pH 7.4, probe amodiaquine, RI/TDI fold shift): 3.2; IC50 shift at 10 min ([6]; pH 7.4, probe midazolam (cocktail set B)): 2.7; IC50 shift at 10 min ([6]; pH 7.4, probe nifedipine (cocktail set B)): 2.4; IC50 shift at 10 min ([6]; pH 7.4, probe testosterone (cocktail set B)): 2.4
COc1cc2c(c(OC)c1OC)-c1c(cc3c(c1OC)OCO3)C[C@H](C)[C@](C)(O)[C@H]2OC(=O)c1ccccc1 [Gomisin C, gomisin C]	24.4	> 50	> 50	> 50	16.3	20.4	5.8		> 50	33.1	0.3	0.1	0.26	0.19 to 0.28	> 50	> 50	> 50	0.19 to 0.3	0.09	0.09	
COc1cc2c(c(OC)c1OC)-c1c(cc(OC)c(OC)c1OC)C[C@](C)(O)[C@@H](C)C2 [Schisandrin, schisandrin]	36	4.2	> 50	40.9	5.3	46.1	> 50	22	> 50	14.7	10.5	35	16	5.8	> 50	43	> 50	≤ 16	43.3	20.6	
